Laboratory results published in article PMC8976029, “Gut microbiota production of trimethyl-5-aminovaleric acid reduces fatty acid oxidation and accelerates cardiac hypertrophy” (Nature Communications, 2022).

Target: T1, OCTN2 (hOCTN2) (Homo sapiens, UniProt O76082)
T1 construct: gene SLC22A5; human OCTN2 stably overexpressed in MDCK cells; no tag stated
T1 sequence (O76082 1-557): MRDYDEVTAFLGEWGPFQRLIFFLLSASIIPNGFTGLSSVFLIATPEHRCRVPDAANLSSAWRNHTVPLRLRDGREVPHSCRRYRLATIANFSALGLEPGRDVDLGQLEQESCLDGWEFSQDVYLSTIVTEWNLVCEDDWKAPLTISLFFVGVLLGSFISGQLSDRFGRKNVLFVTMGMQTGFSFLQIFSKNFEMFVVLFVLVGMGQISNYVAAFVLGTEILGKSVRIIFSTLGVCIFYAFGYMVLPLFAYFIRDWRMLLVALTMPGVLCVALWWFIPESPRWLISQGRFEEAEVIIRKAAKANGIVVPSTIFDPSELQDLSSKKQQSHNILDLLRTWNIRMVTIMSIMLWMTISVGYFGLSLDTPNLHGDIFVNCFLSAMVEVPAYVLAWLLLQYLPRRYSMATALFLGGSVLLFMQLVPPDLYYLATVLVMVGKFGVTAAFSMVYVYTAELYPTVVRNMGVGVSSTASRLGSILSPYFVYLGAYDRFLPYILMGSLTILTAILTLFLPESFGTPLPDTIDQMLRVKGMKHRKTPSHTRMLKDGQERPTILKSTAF
Experiment: d9-carnitine uptake inhibition, LC-MS/MS
Type: cell-based
Text: d9-carnitine uptake inhibition, LC-MS/MS on OCTN2 (hOCTN2) | TMAVA reduced the uptake of d9-carnitine in a concentration-dependent manner with an IC50 of […]

C[N+](C)(C)CCCCC(=O)O [TMAVA, N,N,N-trimethyl-5-aminovaleric acid]
IC50: 4.15 µM
